The subject of this test is K. pneumoniae. As to the kind of experiment: Antimicrobial activity (MIC) of polymers and antibiotics individually. Conditions: Klebsiella pneumoniae, agents individually. The format is cell-based. The text has this:
As depicted in FIGS. 1-5, “m” can represent a number that is, for example, greater than or equal to 5 and less than or equal to 30, and/or “n” can represent a number that is, for example, greater than or equal to 0 and less than or equal to 25. Additionally, the “*” can represent: one or more repetitions of all and/or parts of the structures shown, one or more hydrogens, an alkyl group, an aryl group, a combination thereof, and/or the like. Unless otherwise stated, materials utilized to facilitate the experiments, tables, charts, diagrams, and/or the like described herein can be acquired from the following sources. The bacteria Staphylococcus aureus (“S. aureus”, ATCC 29737), Escherichia coli (“E. coli”, ATCC 25922), Pseudomonas aeruginosa (“P. aeruginosa”, ATCC 9027), Candida albicans (“C. albicans”, ATCC 10231), and/or Klebsiella pneumoniae (“K. pneumoniae”, ATCC700603) were acquired from American Type Culture Collection (“ATCC”).
Further, Table 1, presented below, can depict the antimicrobial activity of the guanidinium functionalized polylysine polymers and/or antibiotics individually with regards to K. pneumoniae.
The term MIC denotes the lowest concentration that inhibits growth of the organism. On to `CN(C)[C@@H]1C(O)=C(C(N)=O)C(=O)[C@@]2(O)C(O)=C3C(=O)c4c(O)ccc(Cl)c4[C@@](C)(O)[C@H]3C[C@@H]12` [Chlortetracycline], for which the MIC was 15.6 µg/mL.

For the compound `CO/N=C(\C(=O)N[C@@H]1C(=O)N2C(C(=O)O)=C(CSC(=O)c3ccco3)CS[C@H]12)c1csc(N)n1` [Ceftiofur], the MIC lay within 4 to 8 µg/mL.

Take `CO[C@H]1/C=C/O[C@@]2(C)Oc3c(C)c(O)c4c(O)c(c(/C=N/N5CCN(C)CC5)c(O)c4c3C2=O)NC(=O)/C(C)=C\C=C\[C@H](C)[C@H](O)[C@@H](C)[C@@H](O)[C@@H](C)[C@H](OC(C)=O)[C@@H]1C` [Rifampicin]: the MIC is 31.3 µg/mL.

Take `CCN1CCN(c2cc3c(cc2F)c(=O)c(C(=O)O)cn3C2CC2)CC1` [Enrofloxacin]: the MIC worked out at 1 µg/mL.

(Values after patent US11725107B2, “Polylysine polymers with antimicrobial and/or anticancer activity” (International Business Machines Corporation, priority 2019, dated 2023).)
